# Values quoted from earlier work as cited in patent US20100136125A1, “METHOD OF TREATING INFLAMMATORY BOWEL DISEASE” (Jacobus Pharmaceutical Company, Inc., priority 2006, published 2010).
# Like-named read-outs stand apart in the source and are kept apart here.
# Key:
# [1] = molecular target: T1, thiopurine methyltransferase (TPMT) (Homo sapiens, UniProt P51580); conditions: in vitro kinetic studies; read-out: IC50, non-competitive inhibition of TPMT
# T1 sequence (P51580 1-245): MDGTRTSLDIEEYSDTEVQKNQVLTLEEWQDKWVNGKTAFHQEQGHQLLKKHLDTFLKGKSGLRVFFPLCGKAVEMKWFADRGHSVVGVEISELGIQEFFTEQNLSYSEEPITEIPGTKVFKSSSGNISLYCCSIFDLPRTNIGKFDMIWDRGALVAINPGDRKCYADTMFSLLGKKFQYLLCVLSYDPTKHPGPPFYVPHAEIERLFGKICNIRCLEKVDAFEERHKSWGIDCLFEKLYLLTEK
# [2] = not given; remark: listed apart in the source
# [3] = children, 300 mg/kg/day in 5 equal doses
# [4] = in vivo
# [5] = tested on: active left-sided ulcerative colitis; conditions: 2 gram nightly retention enema, p<0.005 vs placebo
# [6] = tested on: distal ulcerative colitis; conditions: enema 2 g bid, open-label
# [7] = tested on: quiescent Crohn's ileocolitis; conditions: 1.5 g/d slow release, maintenance therapy
# ulcerative colitis = conditions: topical
# Crohn's disease [8] = conditions: in vivo
# Crohn's disease [9] = tested on: Crohn's disease
# [10] = dose 4.0 gm PASER, 2.6-2.8 gm salts
compound,measurement,setting,value
Nc1cccc(C(=O)O)c1O [3-ASA],IC50,[1],99 µM
Nc1ccc(C(=O)[O-])c(O)c1.[K+] [K+ PAS],AOC0-∞,[10],313.22 µg·h/mL
same,Cmax,[10],121.09 µg/mL
same,Tmax,[10],66 min
"Nc1ccc(C(=O)O)c(O)c1 [4-ASA, 4-aminosalicylic acid]",IC50,[1],2600 µM
same,excreted in the urine,[2]; in vivo,≤ 80%
same,half-life of free 4-ASA,[2]; renal disease,30.8 min
same,dosage excreted in acetylated form,[2]; urine,≥ 50%
same,half-life of free 4-ASA,[2]; without renal disease,26.4 min
same,serum level after 4 hours,[3],2-2.5 mg percent
same,serum level of 4-ASA 60 minutes after oral solution,[3],≤ 120 micrograms/ml
same,MIC,tuberculosis; bacteriostatic,under 2 μg/ml
same,half-life,[4],50 min
same,"significant improvement in clinical, sigmoidoscopic and histologic variables after 8 weeks",[5],83%
same,participants with complete resolution of symptoms and sigmoidoscopic abnormalities by 8 weeks,[6],46%
same,additional participants experiencing improvement,[6]; 8 weeks,31%
same,relapse rate after one year,[7],36%
same,clinical improvement within 2 weeks,ulcerative colitis,79%
same,histologic improvement within 2 weeks,ulcerative colitis,44%
same,sigmoidoscopic improvement within 2 weeks,ulcerative colitis,78%
granulocyte-macrophage stimulating factor: granulocyte-macrophage stimulating factor studied in active Crohn's disease,time by which significant clinical activity is demonstrated,Crohn's disease [8],≤ 15 days
Nc1ccc(C(=O)O)c([O-])c1.Nc1ccc(C(=O)O)c([O-])c1.[Ca+2] [Ca++ PAS],AOC0-∞,in vivo,326.83 µg·h/mL
same,Cmax,in vivo,139.51 µg/mL
same,Tmax,in vivo,61.2 min
O=C(O)c1cc(/N=N/c2ccc(S(=O)(=O)Nc3ccccn3)cc2)ccc1O [sulfasalazine],IC50,[1],78 µM
"infliximab: TNF antagonist, chimeric monoclonal antibody cA2 to tumor necrosis factor α",remission rate,Crohn's disease [9]; at 4 weeks,33%
same,response rate,Crohn's disease [9]; at 4 weeks,65%
same,remission (CDAI<150 and IBDQ>170-190),Crohn's disease [9]; by two weeks,27%
same,response (decrease in CDAI≧70 points),Crohn's disease [9]; by two weeks,61%
"Nc1ccc(O)c(C(=O)O)c1 [5-ASA, 5-aminosalicylic acid]",IC50,[1],1240 µM
same,anti-tuberculous activity,tuberculosis,no anti-tuberculous activity
same,relapse rate after one year,[7],38%
same,clinical improvement within 2 weeks,ulcerative colitis,79%
same,histologic improvement within 2 weeks,ulcerative colitis,44%
same,sigmoidoscopic improvement within 2 weeks,ulcerative colitis,78%
Nc1ccc(C(=O)[O-])c(O)c1.[Na+] [Na+ PAS],AOC0-∞,in vivo,313.22 µg·h/mL
same,Cmax,in vivo,155.44 µg/mL
same,Tmax,in vivo,49.8 min
Acetyl-para-aminosalicylate [Ac-PAS],half-life of the acetylated metabolite,[2]; normals,51 min
same,half-life of the acetylated metabolite,[2]; uremic patients,309 min
